Data taken from paper PMC6121260, “Sulfated Metabolites of Flavonolignans and 2,3-Dehydroflavonolignans: Preparation and Properties” (International Journal of Molecular Sciences, 2018).
Like-named read-outs stand apart in the source and are kept apart here. Marks after values point to notes of the source that are not given here.

How the values were obtained:
[1] = set-up: method as in PMID 26260337, PMID 16919302; settings: read-out: DPPH scavenging IC50; cited from earlier work
[2] = DPPH radical scavenging; type: biochemical; settings: mean ± standard error
Experimental: (§1) N,N-dimethyl-p-phenylenediamine (DMPD) and 2,2′-azino-bis(3-ethylbenzothiazolin-6-sulfonic acid (ABTS) cation radical scavenging and ferric reducing antioxidant power (FRAP) were measured using kits from Bioquochem (Llanera-Asturias, Spain). Antiradical activity by 2,2-diphenyl-1-picrylhydrazyl radical scavenging assay, reducing capacity using Folin–Ciocalteau reagent (FCR), and anti-lipoperoxidant activity using inhibition of lipid peroxidation of rat liver microsomes induced by tert-butyl hydroperoxide were determined as described previously with modifications described in detail in our previous research.

[3] = ABTS+ cation radical scavenging; type: biochemical; settings: vitamin C equivalents, mean ± standard error
Experimental: as §1

[4] = Folin–Ciocalteu reagent (FCR) reduction; type: biochemical; settings: Folin–Ciocalteau reagent reduction, gallic acid equivalents; mean ± standard error
Experimental: as §1

[5] = DMPD+ cation radical scavenging; type: biochemical; settings: vitamin C equivalents, mean ± standard error
Experimental: as §1

[6] = Ferric reducing antioxidant power (FRAP); type: biochemical; settings: equivalents of Fe^2+, mean ± standard error
Experimental: as §1

[7] = Inhibition of lipoperoxidation (Lpx) induced by tert-butyl hydroperoxide; type: biochemical; settings: rat liver microsomal membranes, mean ± standard error
Experimental: as §1

[8] = Log p, octan-1-ol / phosphate buffer partition; type: physicochemical; settings: octan-1-ol / 6.6 mM phosphate buffer pH 7.4, 25 °C
Experimental: The hydrophobicity of the compounds was determined by measuring their partition coefficient P in a mixture of two immiscible phases—octan-1-ol and 6.6 mM phosphate buffer pH 7.4. Stock solutions (0.5 mM) were prepared in octan-1-ol (parent compounds) and in the buffer (sulfated compounds). The stock solutions (150 µL) were mixed with 150 µL of the immiscible phase in microcentrifuge tubes (1.5 mL); shaken for 2 h (750 rpm, 25 °C); and after incubation, the phases were separated. Water phases were diluted 1:1 with the mobile phase (acetonitrile/deionized water/HCO2H, 5:95:0.1; v/v) and analyzed by HPLC using the gradient G3 (see Section 3.1.3). Octan-1-ol phases were evaporated in the stream of air (70 °C), then dissolved in 10 µL of DMSO, and mixed with 90 µL of mobile phase and analyzed by HPLC. The log p values were calculated from the respective peak heights (h) using the formula log p = log(hoctanol/hbuffer). For comparison, log p values were calculated using the Molinspiration property engine v2016.10 (http://www.molinspiration.com, Molinspiration Cheminformatics, Slovensky Grob, Slovakia) (access on 26th October 2017).

[9] = target: T1, aryl sulfotransferase from rat liver (AST IV) (Rattus norvegicus, UniProt P17988); assay: Substrate specificity of AST IV (whole E. coli cells, p-NPS donor); type: in vitro ADME; set-up: key: +: isolated sulfated product(s) and/or release of p-nitrophenol (p-NP); –: no formation of p-NP and/or isolated sulfated products; settings: whole E. coli cells expressing AST IV, 37 °C, 72 h
T1 construct: made in house; host or cells: E. coli BL21 (DE3) Gold (whole cells used as catalyst)
Experimental: The plasmid bearing astIV gene was kindly provided by Prof. L. Elling, RWTH Aachen, Germany. The enzyme was expressed in E. coli BL21 (DE3) Gold as described, with modifications reported in our previous work. Whole E. coli cells producing the enzyme, freshly prepared according to the literature, were employed in the biotransformation experiments as a catalyst.
Silybin, silybin A, silybin B, silychristin, and silydianin (separately, each 50 mg, 0.104 mmol) and p-nitrophenyl sulfate (p-NPS, 35 mg, 0.136 mmol; Sigma-Aldrich, St. Louis, MO, USA) were dissolved in 3 mL DMSO, and 2 g (wet based) of whole cells expressing AST IV resuspended in K-phosphate buffer (pH 7.5, 17 mL) were added. The reaction mixture was incubated on a rotary shaker at 37 °C for 24 h. The cells were then removed by centrifugation (30 min, 5000 rpm, 5404 R Eppendorf, Germany), a new portion of fresh cells (2 g in 15 mL, wet based, resuspended in K-phosphate buffer) were added to the supernatant and incubated for 24 h. This step was repeated once more with a total reaction time of 72 h. The reaction was monitored by HPLC and after 72 h, the reaction mixtures, containing the sulfated product(s), were purified by preparative HPLC employing Asahipak GS-310 20F (Shodex, Tokyo, Japan) column with isocratic elution with 100% methanol. The fraction containing the putative sulfated product(s) was evaporated, dissolved in 1 mL of 80% methanol, and loaded onto a Sephadex LH-20 column (15 g dry weight, 12 mm i.d.) packed and eluted with 80% methanol. Only one sulfated product was obtained; silybin B 20-O-sulfate (14.5 mg, 0.03 mmol, yield 25%), whose identity was confirmed by comparison with previously published data.

[10] = Stability of the isolated sulfate; type: physicochemical; settings: after isolation
Experimental: It quickly decomposed into a mixture of at least five products and, therefore, it was not studied further.
Silydianin (150 mg, 0.311 mmol) was sulfated using the same procedure as for silybin. Silydianin-19-O-sulfate was obtained as a yellowish solid (101 mg, 58.3%). Its structure was determined by HRMS (m/z calcd. for C25H21O13 S 561.07083, found 561.07141) and NMR (see Figure S13 and Table S5, Supplementary Material).

T1 sequence (P17988 whole entry): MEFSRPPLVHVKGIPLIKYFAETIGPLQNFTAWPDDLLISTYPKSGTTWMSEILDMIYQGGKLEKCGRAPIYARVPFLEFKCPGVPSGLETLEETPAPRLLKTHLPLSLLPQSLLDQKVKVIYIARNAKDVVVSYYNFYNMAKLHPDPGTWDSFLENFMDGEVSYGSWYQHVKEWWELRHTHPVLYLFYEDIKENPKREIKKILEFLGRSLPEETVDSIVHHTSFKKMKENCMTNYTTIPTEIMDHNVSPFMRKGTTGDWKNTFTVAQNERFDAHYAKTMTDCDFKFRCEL

O=C1c2c(O)cc(O)cc2OC(c2ccc(O)c(O)c2)C1O (stereo not shown) [taxifolin]
IC50 [1]: 6 to 10 µM

COc1cc([C@@H]2Oc3cc([C@H]4Oc5cc(O)cc(O)c5C(=O)[C@@H]4O)ccc3O[C@H]2CO)ccc1O [Silybin B, silybin B, reference compound]
IC50 [2]: 546 ± 17 µM | ABTS^+ [CE] [3]: 0.97 ± 0.05 ^i CE | FCR [GAE] [4]: 0.36 ± 0.03 ^k GAE | DMPD^+ [CE] [5]: 1.09 ± 0.01 ^n CE | FRAP [Fe^2+] [6]: 0.04 ± 0.00 ^q Fe^2+ | IC50 [7]: 68.6 ± 2.2 µM | logP at 2 h [8]: 2.17 | Formation of p-NP [9]: + ^a

COc1cc(C2C3C=C(C4Oc5cc(O)cc(O)c5C(=O)C4O)C4C2COC4(O)C3=O)ccc1OS(=O)(=O)O (stereo not shown) [Silydianin-19-O-sulfate]
Stability of the compound [10]: unstable | Stability of the compound ([10]; listed as silydianin-19-O-sulfate): extremely unstable

COc1cc([C@H]2Oc3cc([C@H]4Oc5cc(O)cc(O)c5C(=O)[C@@H]4O)ccc3O[C@@H]2CO)ccc1O [Silybin A, silybin A, reference compound]
IC50 [2]: 490 ± 21 µM | ABTS^+ [CE] [3]: 1.01 ± 0.03 ^i CE | FCR [GAE] [4]: 0.33 ± 0.02 ^k GAE | DMPD^+ [CE] [5]: 0.96 ± 0.01 ^n CE | FRAP [Fe^2+] [6]: 0.06 ± 0.00 Fe^2+ | IC50 [7]: 48.6 ± 0.4 µM | logP at 2 h [8]: 1.52 | Formation of p-NP [9]: – ^c
